Like-named read-outs stand apart in the source and are kept apart here. A value given as a limit tells only on which side of the number the result lay.

Data on 22 compounds can be found in US8513271B2, “Pyrimidine compounds as delta opioid receptor modulators” (Janssen Pharmaceutica, NV, priority 2009, dated 2013).

For assay [1], the target named is T1, delta opioid receptor (Rattus norvegicus, UniProt P33533).
T1 construct: the forebrains were homogenized in Tris buffer in a Teflon®-glass homogenizer; from tissue; host or cells: forebrain of male Wistar rats, particulate (membrane) preparation
Nature of the assay: Rat brain delta opioid receptor binding assay. The following applies: rat forebrain.

The target of assay [2] is T2, mu opioid receptor (Rattus norvegicus, UniProt P33535).
T2 construct: the forebrains were homogenized in Tris buffer in a Teflon®-glass homogenizer; from tissue; host or cells: forebrain of male Wistar rats, particulate (membrane) preparation
Nature of the assay: Rat brain mu opioid receptor binding assay. Particulars: rat forebrain, [3H]DAMGO ligand.

The target of assay [3] is T3, delta opioid receptor (Mus musculus, UniProt P32300).
T3 construct: NG108-15 cell membranes were purchased from Applied Cell Sciences (Rockville, Md.); host or cells: NG108-15 cell membranes
Nature of the assay: [35S]GTPγS binding assay in NG108-15 cell membranes (delta opioid functional assay), 200 nM screen. The format is biochemical. The following applies: for EC50 / GTPγS δ-opioid receptor Rel Efficacy: NG108-15 cell membranes; for EC50: averages if tested more than once; for GTPγS δ-opioid receptor Rel Efficacy: relative efficacy from dose response. A general note: GTPγS is a poorly hydrolysed GTP analogue; its binding reports G protein activation.

Setting [4] is: δ-binding (Naltrindole ligand) Ki, [3H]naltrindole ligand.
The mark [5] stands for this setting: read-out: GTPγS δ-opioid receptor EC50.
[6] abbreviates: [3H]naltrindole ligand, read-out: δ-binding (Naltrindole ligand) Ki.
Where [7] appears, read: GTPγS δ-opioid receptor EC50 (μM).
[8] abbreviates: [3H]DPDPE ligand, read-out: δ-binding (DPDPE ligand) Ki.

T1 sequence (P33533 whole entry): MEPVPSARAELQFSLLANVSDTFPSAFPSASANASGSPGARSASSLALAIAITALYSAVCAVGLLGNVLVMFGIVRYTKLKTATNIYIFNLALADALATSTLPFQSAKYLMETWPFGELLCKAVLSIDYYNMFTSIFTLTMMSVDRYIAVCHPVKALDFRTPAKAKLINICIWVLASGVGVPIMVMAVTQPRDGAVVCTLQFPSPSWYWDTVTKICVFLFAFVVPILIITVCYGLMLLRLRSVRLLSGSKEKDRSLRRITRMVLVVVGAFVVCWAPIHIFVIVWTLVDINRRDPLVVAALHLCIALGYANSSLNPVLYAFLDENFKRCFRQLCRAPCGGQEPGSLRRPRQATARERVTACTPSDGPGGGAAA
T2 sequence (P33535 whole entry): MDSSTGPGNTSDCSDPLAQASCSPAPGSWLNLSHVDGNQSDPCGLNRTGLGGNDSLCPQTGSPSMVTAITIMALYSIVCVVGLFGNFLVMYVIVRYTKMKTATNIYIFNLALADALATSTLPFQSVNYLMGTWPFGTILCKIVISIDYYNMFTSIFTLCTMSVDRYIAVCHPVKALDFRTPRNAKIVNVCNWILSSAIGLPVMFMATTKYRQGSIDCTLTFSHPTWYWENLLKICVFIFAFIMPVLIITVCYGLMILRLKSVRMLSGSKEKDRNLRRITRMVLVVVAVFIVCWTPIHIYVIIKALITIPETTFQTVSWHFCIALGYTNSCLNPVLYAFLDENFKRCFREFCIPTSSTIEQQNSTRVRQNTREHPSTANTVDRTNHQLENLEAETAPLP
T3 sequence (P32300 whole entry): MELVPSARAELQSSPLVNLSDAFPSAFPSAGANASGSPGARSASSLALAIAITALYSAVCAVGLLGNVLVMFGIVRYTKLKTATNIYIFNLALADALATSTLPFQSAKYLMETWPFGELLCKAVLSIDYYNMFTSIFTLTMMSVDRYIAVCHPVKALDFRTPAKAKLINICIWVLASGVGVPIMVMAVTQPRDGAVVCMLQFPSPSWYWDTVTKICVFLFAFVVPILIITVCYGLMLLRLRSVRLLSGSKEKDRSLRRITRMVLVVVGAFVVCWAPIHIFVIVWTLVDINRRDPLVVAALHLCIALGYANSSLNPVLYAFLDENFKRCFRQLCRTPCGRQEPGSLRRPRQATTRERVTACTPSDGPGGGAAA

What is called Ki is the dissociation constant of the complex between target and ligand, obtained from inhibition or displacement. One may read the EC50 as the concentration at which the effect is half-maximal. Regarding `c1ncc(-c2ncc(NC[C@@H]3CCCN3)c(Oc3ccc4ncsc4c3)n2)cn1` [Cpd 85], the values for the Ki in assay [1] (setting [4]) and in assay [2] (read-out: μ-binding Ki) were 2 nM and over 10000 nM, respectively. In assay [3] (setting [5]), the EC50 is over 10 µM.
For `COc1ccc(Oc2nc(-c3cn[nH]c3)ncc2NC[C@@H]2CCCN2)cc1` [Cpd 65], the results for the Ki in assay [1] (setting [6]) and in assay [2] (read-out: μ-binding Ki) were 3 nM and 555 nM, respectively. Also, the EC50 in assay [3] (setting [5]) stood at 0.339 µM. Also, in assay [3], the “GTPγS δ-opioid receptor Rel Efficacy” value amounted to 0.824.
On to `CCOc1ncc(-c2ncc(NC[C@@H]3CCCN3)c(Oc3ccc(OC)cc3)n2)cn1` [Cpd 60], for which the inhibitory constant (Ki) was 14 nM in assay [1] (setting [4]) and 1520 nM in assay [2] (μ-binding Ki). The same compound had a concentration giving a half-maximal response (EC50) in assay [3] (setting [7]) of 0.089 µM. Further, the inhibition at 10 µM in assay [3] (read-out: GTPγS δ-opioid receptor % Inh @10 μM) was 3.73%. Also, the “GTPγS δ-opioid receptor Rel Efficacy” value in assay [3] came to 0.926.
For `N#Cc1cncc(-c2ncc(NC[C@@H]3CCCN3)c(Oc3ccc4ncsc4c3)n2)c1` [Cpd 86], the figures for the Ki in assay [1] (setting [4]) and in assay [2] (read-out: μ-binding Ki) were 2 nM and 1180 nM, respectively. In addition, the EC50 in assay [3] (setting [5]) was determined as 0.386 µM.
With `COc1ccc(Oc2nc(-c3ccc4c(c3)CCO4)ncc2NC[C@@H]2CCCN2)cc1` [Cpd 63], the Ki was determined as 37 nM in assay [1] (setting [4]) and 633 nM in assay [2] (read-out: μ-binding Ki). Also, in assay [3] (setting [5]), the EC50 is 0.693 µM.
On to `COc1ccc(Oc2nc(-c3cncnc3)ncc2NC2CCCNC2)cc1` (stereo not drawn) [Cpd 109], for which the figures for the Ki in assay [1] (setting [4]) and in assay [2] (μ-binding Ki) were 1 nM and 522 nM, respectively. In assay [3] (setting [7]), this compound showed an EC50 of 0.057 µM. Further, in assay [3], the “GTPγS δ-opioid receptor Rel Efficacy” value is reported as 1.102.
For the compound `CCN(CC)C(=O)c1cccc(-c2ncc(NC[C@@H]3CCCN3)c(Oc3ccc(OC)cc3)n2)c1` [Cpd 31], the Ki turned out to be 31 nM in assay [1] (setting [4]) and 837 nM in assay [2] (read-out: μ-binding Ki).
With `COc1ccc(Oc2nc(-c3ccc(-c4ccccc4)cc3)ncc2NC[C@@H]2CCCN2)cc1` [Cpd 19], the Ki in assay [1] (setting [6]) stood at 201 nM; in assay [2] (read-out: μ-binding Ki) it was 8080 nM.
On to `COc1ccc(Oc2nc(-c3ccn[nH]3)ncc2NC[C@@H]2CCCN2)cc1` [Cpd 61], for which the Ki is 259 nM in assay [1] (setting [6]) and 3990 nM in assay [2] (read-out: μ-binding Ki).
`COc1ccc(Oc2nc(-c3nccs3)ncc2NC[C@@H]2CCCN2)cc1` [Cpd 48]: the Ki was 24 nM in assay [1] (setting [4]) and 862 nM in assay [2] (read-out: μ-binding Ki).
For the compound `COc1ccc(-c2ncc(NC[C@@H]3CCCN3)c(Oc3ccccc3OC)n2)cn1` [Cpd 39], the Ki in assay [1] (setting [4]) was 67 nM; in assay [2] (read-out: μ-binding Ki), 8990 nM.
For `COc1ccc(Oc2nc(-c3cccc4ncccc34)ncc2NC[C@@H]2CCCN2)cc1` [Cpd 16], in that order: 14 nM and 1320 nM.
Turning to `COc1ccc(Oc2nc(-c3ccc(OC)cc3)ncc2NC[C@@H]2CCCN2)cc1` [Cpd 1], the Ki in assay [1] (setting [8]) stood at 363 nM; in assay [2] (read-out: μ-binding Ki), 3230 nM.
For the compound `COc1ccc(Oc2nc(-c3cccc(OC(F)(F)F)c3)ncc2NC[C@@H]2CCCN2)cc1` [Cpd 51], the Ki in assay [1] (setting [4]) stood at 22 nM; in assay [2] (read-out: μ-binding Ki), 1030 nM.
Take `COc1ccc(Oc2nc(-c3cnc(N)nc3)ncc2NC[C@@H]2CCCN2)cc1` [Cpd 81]: the Ki amounted to 355 nM in assay [1] (setting [6]) and 569 nM in assay [2] (read-out: μ-binding Ki).
Regarding `COc1ccc(Oc2nc(-c3cccc(OC)c3)ncc2NC[C@@H]2CCCN2)cc1` [Cpd 3], the Ki worked out at 142 nM in assay [1] (setting [8]) and 2340 nM in assay [2] (read-out: μ-binding Ki).
Turning to `COc1ccc(Oc2nc(-c3cnc(SC)nc3)ncc2NC[C@@H]2CCCN2)cc1` [Cpd 52], the inhibition constant (Ki) was determined as 0.4 nM in assay [1] (setting [4]) and 539 nM in assay [2] (read-out: μ-binding Ki).
For `COc1ccc(Oc2nc(-c3cnc(N(C)C)nc3)ncc2NC[C@@H]2CCCN2)cc1` [Cpd 82] the same measures were 28 nM and 1050 nM.
Consider `COc1ccc(Oc2nc(-c3ccc(NC(C)=O)cc3)ncc2NC[C@@H]2CCCN2)cc1` [Cpd 43], for which the results for the Ki in assay [1] (setting [4]) and in assay [2] (read-out: μ-binding Ki) were 4 nM and 523 nM, respectively.
Take `COc1ccc(Oc2nc(-c3cccc(N)c3)ncc2NC[C@@H]2CCCN2)cc1` [Cpd 45]: the results for the inhibitory constant (Ki) in assay [1] (setting [6]) and in assay [2] (read-out: μ-binding Ki) were 11 nM and 812 nM, respectively.
For `COc1ccc(Oc2nc(-c3cnc4[nH]ccc4c3)ncc2NC[C@@H]2CCCN2)cc1` [Cpd 77] the same measures were 154 nM and 313 nM.
With `COc1ccc(Oc2nc(-c3cc(F)cc(OC)c3)ncc2NC[C@@H]2CCCN2)cc1` [Cpd 70], the Ki in assay [1] (setting [4]) amounted to 47 nM; in assay [2] (read-out: μ-binding Ki), 2250 nM.
